Source: patent US9561228B2 (Celgene Avilomics Research, Inc., priority 2013, dated 2017)

Legend:
Erk1 = target: T1, Erk1 (Homo sapiens, UniProt P27361); assay: Protein Mass Modification Assay (intact protein MALDI, 60 min, 10-fold excess of compound); format: binding
T1 construct: purchased Millipore 14-439
How it was run: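 Percent covalent modification comes from the intact-protein MALDI centroid mass shift, treated versus control, divided by compound MW. Before analysis, human Erk1 was exposed to compound at 10-fold excess over protein for 60 min at room temperature.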

[1] = system: ERK1/2 phosphorylation of p90RSK in A375 cells; assay: Detection of total and phosphor-RSK by MSD ELISA (A375); format: cell-based; settings: Homo sapiens, A-375, read-out: ERK1/ERK2 PRSK A375 EC50
How it was run: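 Electrochemiluminescent MSD ELISA: common RSK capture antibody, with pRSK Ser380 or total RSK detection antibodies plus SulfoTag secondaries. Samples were lysates of A375 cells exposed to compound for 2 h at 37° C after overnight culture in 0.1% FBS DMEM.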

[2] = system: ERK1/2 phosphorylation of p90RSK in HT29 cells; assay: pRSK MSD Assay in HT29 cells; format: cell-based; settings: Homo sapiens, HT-29, read-out: ERK1/ERK2 PRSK MSD HT29 EC50
How it was run: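 Phospho-RSK level, read by electrochemiluminescence on RSK-antibody-coated MSD plates with a phospho-RSK/Sulfo-tag detection pair, reports cellular ERK1/2 activity. HT29 cells, kept overnight in 0.1% FBS medium, were exposed to compound for 120 min at 37° C before lysis.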

T1 sequence (P27361 whole entry): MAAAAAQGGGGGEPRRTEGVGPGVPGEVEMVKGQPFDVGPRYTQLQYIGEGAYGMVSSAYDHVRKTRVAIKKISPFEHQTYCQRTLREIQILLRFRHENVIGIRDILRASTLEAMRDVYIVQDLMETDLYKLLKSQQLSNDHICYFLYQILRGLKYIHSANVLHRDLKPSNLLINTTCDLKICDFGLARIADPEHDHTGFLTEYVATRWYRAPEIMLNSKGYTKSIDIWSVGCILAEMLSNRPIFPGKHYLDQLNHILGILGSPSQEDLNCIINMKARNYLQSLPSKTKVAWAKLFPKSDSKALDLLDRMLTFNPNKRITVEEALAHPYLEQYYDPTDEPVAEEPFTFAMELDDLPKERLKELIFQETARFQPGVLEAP

SMILES	ERK1 Mass Mod (%) (Erk1)	EC50 [1] [nM]	EC50 [2] [nM]
C=CC(=O)Nc1cc(C)c(F)cc1Nc1nc(Nc2nc(OC)ncc2C)ncc1C(F)(F)F [Compound I-377, N-(4-fluoro-2-((2-((2-methoxy-5-methylpyrimidin-4-yl)amino)-5-(trifluoromethyl)pyrimidin-4-yl)amino)-5-methylphenyl)acrylamide]	E (a mass modification of ≧70%)	< 100	< 100
C=CC(=O)Nc1cc(C)ccc1Nc1nc(Nc2cc(OCCOC)ncc2C)ncc1C(F)(F)F [Compound I-359, N-(2-((2-((2-(2-methoxyethoxy)-5-methylpyridin-4-yl)amino)-5-(trifluoromethyl)pyrimidin-4-yl)amino)-5-methylphenyl)acrylamide]	E (a mass modification of ≧70%)	101 to 500	101 to 500
C=CC(=O)Nc1cc(C)ccc1Nc1nc(Nc2ccc3ocnc3c2)ncc1C(F)(F)F [Compound I-375, N-(2-((2-(benzo[d]oxazol-5-ylamino)-5-(trifluoromethyl)pyrimidin-4-yl)amino)-5-methylphenyl)acrylamide]	E (a mass modification of ≧70%)	101 to 500	> 1000
C=CC(=O)Nc1cc(C)ccc1Nc1nc(Nc2cc(P(C)(C)=O)ncc2C)ncc1C(F)(F)F [Compound I-343, N-(2-((2-((2-(dimethylphosphoryl)-5-methylpyridin-4-yl)amino)-5-(trifluoromethyl)pyrimidin-4-yl)amino)-5-methylphenyl)acrylamide]	F (a mass modification of 31-69%)	101 to 500	101 to 500
C=CC(=O)Nc1cc(C)ccc1Nc1nc(Nc2c[nH]c(=O)cc2C)ncc1C(F)(F)F [Compound I-370, N-(5-methyl-2-((2-((4-methyl-6-oxo-1,6-dihydropyridin-3-yl)amino)-5-(trifluoromethyl)pyrimidin-4-yl)amino)phenyl)acrylamide]	E (a mass modification of ≧70%)	> 1000	501 to 999
C=CC(=O)Nc1ccccc1Nc1nc(Nc2cc(OC)ncc2C)ncc1C(F)(F)F [Compound I-85, N-(2-((2-((2-Methoxy-5-methylpyridin-4-yl)amino)-5-(trifluoromethyl)pyrimidin-4-yl)amino)phenyl)acrylamide]	E (a mass modification of ≧70%)	< 100	< 100
C=CC(=O)Nc1cc(C)ccc1Nc1nc(Nc2nc(O)ncc2C)ncc1C(F)(F)F [Compound I-364, N-(2-((2-((2-hydroxy-5-methylpyrimidin-4-yl)amino)-5-(trifluoromethyl)pyrimidin-4-yl)amino)-5-methylphenyl)acrylamide]	E (a mass modification of ≧70%)	< 100	< 100
C=CC(=O)Nc1cc(C)ccc1Nc1nc(NC2CCC(=O)NC2)ncc1C(F)(F)F (racemic) [Compound I-368, Rac-N-(5-methyl-2-((2-((6-oxopiperidin-3-yl)amino)-5-(trifluoromethyl)pyrimidin-4-yl)amino)phenyl)acrylamide]	E (a mass modification of ≧70%)	> 1000	501 to 999
C#CC(=O)Nc1cc(C)ccc1Nc1nc(Nc2cc(OC)ncc2C)ncc1C(F)(F)F [Compound I-345, N-(2-((2-((2-methoxy-5-methylpyridin-4-yl)amino)-5-(trifluoromethyl)pyrimidin-4-yl)amino)-5-methylphenyl)propiolamide]	E (a mass modification of ≧70%)	> 1000	> 1000
C=CC(=O)Nc1cc(C)ccc1Nc1nc(Nc2cc(-c3nc[nH]n3)ccc2C)ncc1C(F)(F)F [Compound I-373, N-(5-methyl-2-((2-((2-methyl-5-(1H-1,2,4-triazol-3-yl)phenyl)amino)-5-(trifluoromethyl)pyrimidin-4-yl)amino)phenyl)acrylamide]	F (a mass modification of 31-69%)	501 to 999	101 to 500

Now from value to compound:

ERK1 Mass Mod (%) (Erk1)	EC50 [1] [nM]	EC50 [2] [nM]	SMILES
E (a mass modification of ≧70%)	101 to 500	101 to 500	C=CC(=O)Nc1cc(C)ccc1Nc1nc(Nc2cc(OC)ncc2C(F)F)ncc1C(F)(F)F [Compound I-431, N-(2-((2-((5-(difluoromethyl)-2-methoxypyridin-4-yl)amino)-5-(trifluoromethyl)pyrimidin-4-yl)amino)-5-methylphenyl)acrylamide]
E (a mass modification of ≧70%)	> 1000	501 to 999	C=CC(=O)Nc1cc(CN2CCN(C(=O)CO)CC2)ccc1Nc1nc(Nc2nc(OC)ncc2C)ncc1C(F)(F)F [Compound I-386, N-(5-((4-(2-hydroxyacetyl)piperazin-1-yl)methyl)-2-((2-((2-methoxy-5-methylpyrimidin-4-yl)amino)-5-(trifluoromethyl)pyrimidin-4-yl)amino)phenyl)acrylamide]
E (a mass modification of ≧70%)	501 to 999	101 to 500	C=CC(=O)Nc1cc(C)ccc1Nc1nc(Nc2cc(-c3c[nH]cn3)ccc2C)ncc1C(F)(F)F [Compound I-378, N-(2-((2-((5-(1H-imidazol-4-yl)-2-methylphenyl)amino)-5-(trifluoromethyl)pyrimidin-4-yl)amino)-5-methylphenyl)acrylamide]
E (a mass modification of ≧70%)	101 to 500	101 to 500	C=CC(=O)Nc1cc(OCCN)ccc1Nc1nc(Nc2cc(OC)ncc2C)ncc1C(F)(F)F [Compound I-396, N-(5-(2-aminoethoxy)-2-((2-((2-methoxy-5-methylpyridin-4-yl)amino)-5-(trifluoromethyl)pyrimidin-4-yl)amino)phenyl)acrylamide]
E (a mass modification of ≧70%)	< 100	< 100	C=CC(=O)Nc1cc(CN2CCN(C(=O)c3cnccn3)CC2)ccc1Nc1nc(Nc2cc(OC)ncc2C)ncc1C(F)(F)F [Compound I-390, N-(2-((2-((2-methoxy-5-methylpyridin-4-yl)amino)-5-(trifluoromethyl)pyrimidin-4-yl)amino)-5-((4-(pyrazine-2-carbonyl)piperazin-1-yl)methyl)phenyl)acrylamide]
E (a mass modification of ≧70%)	> 1000	501 to 999	C=CC(=O)Nc1cc(CN2CCN(C(=O)c3cnccn3)CC2)ccc1Nc1nc(Nc2nc(OC)ncc2C)ncc1C(F)(F)F [Compound I-393, N-(2-((2-((2-methoxy-5-methylpyrimidin-4-yl)amino)-5-(trifluoromethyl)pyrimidin-4-yl)amino)-5-((4-(pyrazine-2-carbonyl)piperazin-1-yl)methyl)phenyl)acrylamide]
